Test results from patent publication US20040147478A1, “Combination chemotherapy” (priority 2002, published 2004).
Where two headings read alike, the source gives them in different places.

Assays:
[1] = system: C26/clone 10 mouse colon carcinoma
[2] = system: C26/clone 10 mouse colon carcinoma; remark: listed apart in the source
in vivo [3] = conditions: female, NCr-nu athymic
[4] = system: COLO-205 human colon carcinoma xenografts
in vivo [5] = conditions: female, NCr-nu athymic; remark: listed apart in the source
in vivo [6] = conditions: female, NCr-nu athymic; remark: listed apart in the source
[7] = system: COLO-205 human colon carcinoma xenografts; remark: listed apart in the source
in vivo [8] = conditions: female, Balb/C, mouse, po
[9] = system: COLO-205 human colon carcinoma xenografts; remark: listed apart in the source
[10] = Capecitabine 500 mg/kg qd alone
[11] = highest dose of capecitabine alone
[12] = Capecitabine 650 mg/kg qd alone
[13] = Capecitabine 500 mg/kg QD alone
[14] = Capecitabine 650 mg/kg QD alone
[15] = Compound A single agent at the MTD

## O=C(NOCC1CC1)c1ccc(F)c(F)c1Nc1ccc(I)cc1Cl [CI-1040, 2-(2-Chloro-4-iodo-phenylamino)-N-cyclopropylmethoxy-3,4-difluorobenzamide]
[1]; CI-1040 37.5 mg/kg tid alone
  % Weight Change: −5.6%
  CR (complete response): 0/10
  Net Log10 Kill: −0.93
  Non-specific Deaths: 0/10
  PR (partial response): 0/10
  T-C (tumor growth delay): 1.9 days
  Tumor Free (day 56): 0/10
[1]; CI-1040 75.0 mg/kg tid alone
  % Weight Change: −10.5%
  CR (complete response): 0/10
  Net Log10 Kill: −0.33
  Non-specific Deaths: 0/10
  PR (partial response): 1/10
  T-C (tumor growth delay): 9.0 days
  Tumor Free (day 56): 0/10
[1]; CI-1040 300.0 mg/kg tid alone
  % Weight Change: −5.3%
  CR (complete response): 0/10
  Net Log10 Kill: −0.04
  Non-specific Deaths: 0/10
  PR (partial response): 4/10
  T-C (tumor growth delay): 12.5 days
  Tumor Free (day 56): 0/10
[1]; highest dose of CI-1040 alone
  partial tumor rate: 40%
[2]; CI-1040 37.5 mg/kg tid alone
  % Weight Change: −5.1%
  CR (complete response): 0/10
  Net Log10 Kill: −0.62
  Non-specific Deaths: 0/10
  PR (partial response): 0/10
  T-C (tumor growth delay): 3.8 days
  Tumor Free (day 93): 0/10
[2]; CI-1040 75.0 mg/kg tid alone
  % Weight Change: −5.1%
  CR (complete response): 0/10
  Net Log10 Kill: −0.21
  Non-specific Deaths: 0/10
  PR (partial response): 0/10
  T-C (tumor growth delay): 9.8 days
  Tumor Free (day 93): 0/10
[2]; CI-1040 300.0 mg/kg tid alone
  % Weight Change: −5.1%
  CR (complete response): 0/10
  Net Log10 Kill: 0.25
  Non-specific Deaths: 0/10
  PR (partial response): 2/10
  T-C (tumor growth delay): 16.7 days
  Tumor Free (day 93): 0/10
[2]; CI-1040 300 mg/kg/treatment alone
  partial tumor responses: 20%
[2]; CI-1040 alone, over the dosage range administered
  loss of initial body weight: approximately 5%

## CCCCCOC(=O)Nc1nc(=O)n([C@@H]2O[C@H](C)[C@@H](O)[C@H]2O)cc1F [Capecitabine, 5′-deoxy-5-fluoro-N-[(pentyloxy)carbonyl]-cytidine]
[1]; [10]
  CR (complete response): 0/10
  Net Log10 Kill: 0.20
  Non-specific Deaths: 0/10
  PR (partial response): 0/10
  T-C (tumor growth delay): 13.4 days
  Tumor Free (day 56): 0/10
[1]; capecitabine 750 mg/kg alone
  partial tumor responses: 40%
[2]; [10]
  CR (complete response): 4/10
  Net Log10 Kill: 0.50
  Non-specific Deaths: 0/10
  PR (partial response): 1/10
  T-C (tumor growth delay): 18.4 days
  Tumor Free (day 93): 3/10
[2]; both dosages of capecitabine alone
  tumor growth delay: approximately 18 days
[2]; capecitabine 500 mg/kg alone
  complete tumor responses: 40%
  partial tumor responses: 10%
  tumor-free when the study ended on day 93: 30%
[2]; [11]
  complete tumor responses: 70%
  partial tumor responses: 10%
[2]; mouse, in vivo
  loss of initial body weight: approximately 5%
In vivo [3]
  MTD: 650 mg/kg
[4]; [10]
  Tumor Free (day 129): 0/10
[4]; [12]
  Non-specific Deaths: 0/10
  Tumor Free (day 129): 0/10
In vivo [5]
  MTD: 650 mg/kg
In vivo [6]
  MTD: 650 mg/kg
[7]; [10]
  Tumor Free (day 112): 1/9
[7]; [12]
  Non-specific Deaths: 0/10
  Tumor Free (day 112): 2/10
In vivo [8]
  MTD: 750 mg/kg/day
[9]; [13]
  CR (complete response): 0/10
  Net Log10 Kill: 0.7
  Non-specific Deaths: 0/10
  PR (partial response): 1/10
  T-C (tumor growth delay): 33.4 days
  Tumor Free (day 118): 0/10
[9]; [14]
  CR (complete response): 3/10
  Net Log10 Kill: 1.5
  Non-specific Deaths: 0/10
  PR (partial response): 4/10
  T-C (tumor growth delay): 56.0 days
  Tumor Free (day 118): 2/10

## O=C(NOC[C@H](O)CO)c1ccc(F)c(F)c1Nc1ccc(I)cc1F [Compound A, N-[(R)-2,3-Dihydroxy-propoxy]-3,4-difluoro-2-(2-fluoro-4-iodo-phenylamino)-benzamide]
In vivo [3]
  MTD: 12.5 mg/kg
[4]; [15]
  tumor cells survived treatment (net kill calculations): < 10%
In vivo [5]
  MTD: 12.5 mg/kg
In vivo [6]
  MTD: 12.5 mg/kg
[7]; Compound A single agent, most tolerated dose levels
  tumor cells survived treatment (net kill calculations): > 10%
[9]; Compound A 3.13 mg/kg QD alone
  Net Log10 Kill: 0.9
  T-C (tumor growth delay): 40.6 days
[9]; Compound A 6.25 mg/kg QD alone
  Net Log10 Kill: 0.6
  T-C (tumor growth delay): 30.1 days
[9]; [15]
  growth delays: up to 42 days
[9]; Compound A single agent, all tolerated dose levels
  tumor cells survived treatment (net kill calculations): > 10%
[9]; Compound A single agent, all tolerated doses
  complete regressions: > 50%
